Reference: patent publication US20030144352A1, “Antimuscarinic aerosol” (priority 2001, published 2003)

Experiments:
[1] = Plasma concentration of tolterodine after aerosol administration (inhalation) in mice; format: in vivo
Experimental: Female BALB/C mice, weight range 19-22 g, were obtained from Charles River Laboratories (Kingston, N.C.). They received food and water ad libitum. All procedures in these studies were in compliance with the Animal Welfare Act Regulation, 9CFR Parts 1 and 2, Publication (NIH) 85-23, 1985.
This nebulizer generates a mean aerosol particle size of 1.3 microns at a rate of approximately 0.25 ml/minute.
Blood samples were taken via cardiac puncture under isoflurane anesthesia at 5, 15, 30, 60, 120, and 240 minutes after in treatment and at 2.5, 5, 15, 30, 60, and 120 minutes after aerosol drug treatment.
The samples were collected in tubes containing EDTA and centrifuged at 12000×g for four minutes. Plasma was removed and stored at −70° C. until assay.
Plasma samples were extracted via a liquid/liquid extraction technique. […] Chromatographically, the analyte and internal standard were resolved on a Zorbax ACE Phenyl column (2.1×50mm) using a gradient elution. The total analysis time was 4 minutes with a limit of quantization of 100 pg/mL.
Female BALB/c mice, weight range 19-22 g, were obtained from Charles River Laboratories (Kingston, N.C.). They received food and water ad libitum. All procedures in these studies were in compliance with the Animal Welfare Act Regulation, 9CFR Parts 1 and 2, Publication (NIH) 85-23, 1985.
The duration of aerosol treatment was five minutes. Blood samples were collected via cardiac puncture at 2.5, 5, 15, 30, 60, and 120 minutes following the end of the drug nebulization period.
The samples from were collected in tubes containing EDTA and centrifuged at 12000×g for four minutes. Plasma was removed and stored at −70° C. until assay.

[2] = human serum; Nilvebrant et al., Life Sciences 60 (1997); cited from earlier work

SMILES	Plasma levels ([1]; female BALB/c mice, inhalation of nebulized 0.1 mg/mL solution for five minutes, 2.5-120 minutes after nebulization)	Fraction unbound [2]	Rise in tolterodine plasma concentration ([1]; mice, aerosol administration (FIGS. 1 and 2))	Absorption into the circulation ([1]; mice, inhalation of nebulized solutions at 0.1, 0.5 or 1.0 mg/mL)
Cc1ccc(O)c([C@H](CCN(C(C)C)C(C)C)c2ccccc2)c1.O=C(O)C(O)C(O)C(=O)O [tolterodine L-tartrate, (R)-N,N-diisopropyl-3-(2-hydroxy-5-methylphenyl)-3-phenylpropanamine L-tartrate]	at or below-detection limits	–	–	–
CC(C)N(CC[C@H](c1ccccc1)c1cc(CO)ccc1O)C(C)C [5-HM, 2-[(1R)-3-(diisopropylamino)-1-phenylpropyl]-4-(hydroxymethyl)phenol]	–	36%	–	–
Cc1ccc(O)c([C@H](CCN(C(C)C)C(C)C)c2ccccc2)c1 [tolterodine, 2-[(1R)-3-(diisopropylamino)-1-phenylpropyl]-4-methylphenol]	–	3.7%	within a few minutes a distinct and instant rise	rapidly absorbed into the circulation
